PMC7530726, “A structure-based computational workflow to predict liability and binding modes of small molecules to hERG” (Scientific Reports, 2020)
Where “and” joins values, the source holds several entries; their conditions need not be identical. Equal values may be shown once. Read-outs that look alike come from different tables or passages of the source.

Key:
hERG = conditions: cited from earlier work
hERG F656A [1] = biological target: T1, hERG F656A (Homo sapiens, UniProt Q12809, F656A); conditions: 1 µM
T1 sequence (Q12809 whole entry F656A): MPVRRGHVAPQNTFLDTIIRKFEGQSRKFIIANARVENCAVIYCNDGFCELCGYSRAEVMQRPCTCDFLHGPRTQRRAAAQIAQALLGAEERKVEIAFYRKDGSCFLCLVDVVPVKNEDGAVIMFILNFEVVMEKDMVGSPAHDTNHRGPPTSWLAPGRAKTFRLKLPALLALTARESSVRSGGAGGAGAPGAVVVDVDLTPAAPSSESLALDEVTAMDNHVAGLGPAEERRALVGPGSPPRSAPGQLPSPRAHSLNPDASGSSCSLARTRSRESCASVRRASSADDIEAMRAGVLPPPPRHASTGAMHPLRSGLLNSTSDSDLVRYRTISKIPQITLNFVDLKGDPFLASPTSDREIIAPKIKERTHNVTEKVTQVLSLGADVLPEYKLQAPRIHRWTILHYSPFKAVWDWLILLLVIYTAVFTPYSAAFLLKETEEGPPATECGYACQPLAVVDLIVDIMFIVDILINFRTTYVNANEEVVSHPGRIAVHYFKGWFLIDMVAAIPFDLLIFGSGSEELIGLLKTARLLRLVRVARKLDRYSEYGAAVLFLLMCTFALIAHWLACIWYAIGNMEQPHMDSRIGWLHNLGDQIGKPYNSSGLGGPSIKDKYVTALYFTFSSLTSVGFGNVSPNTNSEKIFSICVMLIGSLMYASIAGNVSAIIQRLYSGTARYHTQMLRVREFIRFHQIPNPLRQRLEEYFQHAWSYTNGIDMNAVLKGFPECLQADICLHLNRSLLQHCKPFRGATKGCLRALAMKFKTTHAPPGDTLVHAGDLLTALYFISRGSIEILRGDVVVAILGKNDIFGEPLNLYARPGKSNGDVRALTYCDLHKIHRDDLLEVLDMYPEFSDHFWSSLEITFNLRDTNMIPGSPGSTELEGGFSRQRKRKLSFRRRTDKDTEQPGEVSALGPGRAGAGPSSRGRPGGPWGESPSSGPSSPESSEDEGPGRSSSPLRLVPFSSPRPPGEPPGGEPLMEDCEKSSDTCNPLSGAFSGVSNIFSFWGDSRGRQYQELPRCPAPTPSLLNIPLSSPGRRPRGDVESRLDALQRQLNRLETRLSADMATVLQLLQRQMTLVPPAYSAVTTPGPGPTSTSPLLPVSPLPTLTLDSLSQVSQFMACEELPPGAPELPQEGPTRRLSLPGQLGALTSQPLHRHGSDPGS

hERG Y652A [2] = biological target: T2, hERG Y652A (Homo sapiens, UniProt Q12809, Y652A); assay: Whole-cell patch clamp (automated), HEK cells stably expressing hERGY652A
T2 sequence (Q12809 whole entry Y652A): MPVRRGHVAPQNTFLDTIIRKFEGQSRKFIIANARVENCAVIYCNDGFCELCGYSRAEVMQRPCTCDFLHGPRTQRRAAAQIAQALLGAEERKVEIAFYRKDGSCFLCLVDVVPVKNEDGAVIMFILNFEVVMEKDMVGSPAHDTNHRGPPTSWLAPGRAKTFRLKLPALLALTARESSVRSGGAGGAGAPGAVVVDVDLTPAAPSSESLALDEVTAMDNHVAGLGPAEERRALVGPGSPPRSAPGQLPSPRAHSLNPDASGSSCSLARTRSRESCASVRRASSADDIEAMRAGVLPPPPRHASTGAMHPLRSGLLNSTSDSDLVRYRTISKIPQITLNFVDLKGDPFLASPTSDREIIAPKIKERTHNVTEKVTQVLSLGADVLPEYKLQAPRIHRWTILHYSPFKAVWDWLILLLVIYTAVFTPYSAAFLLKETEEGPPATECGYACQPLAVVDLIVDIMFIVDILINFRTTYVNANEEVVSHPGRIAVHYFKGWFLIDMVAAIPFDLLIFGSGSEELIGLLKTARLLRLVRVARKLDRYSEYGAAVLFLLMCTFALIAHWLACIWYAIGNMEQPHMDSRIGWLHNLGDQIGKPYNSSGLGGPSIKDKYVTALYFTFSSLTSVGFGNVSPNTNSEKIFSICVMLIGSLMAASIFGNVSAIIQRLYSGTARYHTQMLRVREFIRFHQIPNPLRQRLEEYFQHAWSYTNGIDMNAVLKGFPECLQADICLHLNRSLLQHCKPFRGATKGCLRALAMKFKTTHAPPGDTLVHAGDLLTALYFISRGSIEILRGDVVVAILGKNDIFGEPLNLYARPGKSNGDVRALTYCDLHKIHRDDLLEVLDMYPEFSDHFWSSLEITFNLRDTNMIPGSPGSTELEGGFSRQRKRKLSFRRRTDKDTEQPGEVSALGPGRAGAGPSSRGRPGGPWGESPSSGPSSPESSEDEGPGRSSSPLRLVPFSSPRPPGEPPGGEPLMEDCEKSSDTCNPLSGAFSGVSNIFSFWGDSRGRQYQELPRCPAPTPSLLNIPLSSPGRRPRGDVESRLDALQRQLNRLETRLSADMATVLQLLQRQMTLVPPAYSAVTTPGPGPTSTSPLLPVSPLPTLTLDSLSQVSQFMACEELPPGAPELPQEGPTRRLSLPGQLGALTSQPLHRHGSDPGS

WT hERG = biological target: T3, WT hERG (Homo sapiens, UniProt Q12809); assay: Predictor hERG Fluorescence Polarization Assay kit; type: binding
T3 construct: purchased Life Technologies
T3 sequence (Q12809 whole entry): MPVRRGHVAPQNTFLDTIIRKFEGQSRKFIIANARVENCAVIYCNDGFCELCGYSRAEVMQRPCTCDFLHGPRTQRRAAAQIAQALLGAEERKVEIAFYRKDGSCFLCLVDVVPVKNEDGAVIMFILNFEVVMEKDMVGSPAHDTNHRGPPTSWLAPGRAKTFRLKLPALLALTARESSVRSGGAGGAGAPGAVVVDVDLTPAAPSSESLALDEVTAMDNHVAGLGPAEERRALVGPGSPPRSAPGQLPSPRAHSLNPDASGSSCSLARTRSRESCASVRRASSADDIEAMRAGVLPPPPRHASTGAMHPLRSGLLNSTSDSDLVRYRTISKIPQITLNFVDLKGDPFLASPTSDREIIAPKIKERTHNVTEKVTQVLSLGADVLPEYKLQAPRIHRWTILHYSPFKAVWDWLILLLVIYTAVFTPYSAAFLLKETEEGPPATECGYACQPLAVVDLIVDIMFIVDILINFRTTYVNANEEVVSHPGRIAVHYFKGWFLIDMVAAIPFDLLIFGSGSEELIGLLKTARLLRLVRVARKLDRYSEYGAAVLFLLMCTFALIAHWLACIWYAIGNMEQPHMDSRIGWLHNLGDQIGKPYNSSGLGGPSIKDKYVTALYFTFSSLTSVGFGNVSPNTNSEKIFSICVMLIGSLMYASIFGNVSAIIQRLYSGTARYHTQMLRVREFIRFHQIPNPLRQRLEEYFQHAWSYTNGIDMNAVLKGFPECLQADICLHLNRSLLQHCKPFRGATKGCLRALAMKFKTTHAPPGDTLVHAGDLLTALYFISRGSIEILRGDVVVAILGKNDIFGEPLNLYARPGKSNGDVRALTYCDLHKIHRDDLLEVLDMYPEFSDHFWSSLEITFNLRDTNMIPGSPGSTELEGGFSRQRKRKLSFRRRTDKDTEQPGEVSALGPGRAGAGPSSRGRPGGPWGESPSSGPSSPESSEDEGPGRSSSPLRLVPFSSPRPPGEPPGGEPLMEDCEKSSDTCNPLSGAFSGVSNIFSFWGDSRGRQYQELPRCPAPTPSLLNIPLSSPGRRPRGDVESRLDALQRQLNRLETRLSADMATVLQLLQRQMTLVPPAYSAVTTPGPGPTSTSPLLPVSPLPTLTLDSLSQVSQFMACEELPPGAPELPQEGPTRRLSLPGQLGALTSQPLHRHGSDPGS
Experimental: All measurements were made according to the manufacturer’s instruction. Fluorescence polarization was measured using PerkinElmer EnVision® Multilabel reader (PerkinElmer, Woodbridge, ON, Canada).

hERG WT [3] = biological target: T4, hERG WT (Homo sapiens, UniProt Q12809); conditions: 1 µM
T4 sequence (Q12809 whole entry): as above

hERG WT [4] = biological target: T4, hERG WT
hERG Y652A [5] = biological target: T2, hERG Y652A; assay: in vitro; conditions: pH 7.4, Percent current inhibition hERG Y652A
hERG F656A [6] = biological target: T1, hERG F656A; assay: in vitro
hERG Y652A [7] = biological target: T2, hERG Y652A; conditions: 1 µM
hERG WT [8] = biological target: T4, hERG WT; assay: in vitro; conditions: Percent current inhibition hERG WT
hERG F656A [9] = biological target: T1, hERG F656A; assay: Whole-cell patch clamp (manual, 135 mM K+), HEK cells stably expressing hERGF656A
[10] = system: serotonin 5-hydroxytryptamine receptor 4 (5HT-4); conditions: cited from earlier work
[11] = read-out: hERG IC50 from literature, Patch clamp HEK293 cells @ 34 ± 1 °C, ref Wu et al.
[12] = read-out: hERG IC50 from literature, Patch clamp HEK293 cells @ 23 ± 1 °C, ref Toga et al.
[13] = pH 7.4, Percent current inhibition hERG F656A
[14] = pH 7.4, reduction in the inhibition of F656A mutant when compared to the WT

Cc1cccc(C)c1NC(=O)C1CCCCN1C (centres unmarked) [Mepivacaine]
IC50 (hERG; read-out: hERG IC50): > 100 µM and 156 µM
IC50 (hERG; [11]): 156 µM

CCOc1cc(N)c(Cl)cc1C(=O)NCC1CN(Cc2ccc(F)cc2)CCO1 (centres unmarked) [Mosapride]
Percent current inhibition hERG F656A (hERG F656A [1]): very small percentage
IC50 (hERG Y652A [2]): 17.4 µM
affinity to WT hERG in FP assay (WT hERG): much weaker affinity
IC50 (hERG; [12]): 4.8 µM
Percent current inhibition hERG WT (hERG WT [3]): very small percentage
IC50 (hERG WT [4]): 5.36 µM
inhibition at 1 µM (hERG Y652A [5]): 7.13%
inhibition at 3 µM (hERG Y652A [5]): 13.6%
inhibition at 5 µM (hERG Y652A [5]): 20.6%
inhibition at 10 µM (hERG Y652A [5]): 31.3 ± 3.65%
inhibition at 30 µM (hERG Y652A [5]): 66.8%
inhibition at 1 µM (hERG F656A [6]; [13]): 11%
inhibition at 3 µM (hERG F656A [6]; [13]): 12.4%
inhibition at 5 µM (hERG F656A [6]; [13]): 16%
inhibition at 10 µM (hERG F656A [6]; [13]): 25.7%
inhibition at 30 µM (hERG F656A [6]; [13]): 34.4%
inhibition at 100 µM (hERG F656A [6]; [13]): 40.2%
inhibition at 1 µM (hERG F656A [6]; [14]): 2%
Percent current inhibition hERG Y652A (hERG Y652A [7]): very small percentage
inhibition at 1 µM (hERG WT [8]): 13.1%
inhibition at 3 µM (hERG WT [8]): 33.5%
inhibition at 5 µM (hERG WT [8]): 45%
inhibition at 10 µM (hERG WT [8]): 68.7%
inhibition at 30 µM (hERG WT [8]): 92.5%

COc1ccccc1OCC(O)CN1CCN(CC(=O)Nc2c(C)cccc2C)CC1 (centres unmarked) [Ranolazine]
Percent current inhibition hERG F656A (hERG F656A [9]; 100 µM): 21.37% ± 7.80
inhibition at 10 µM (hERG F656A [9]; human, HEK cells stably expressing hERG F656A, pH 7.4, Percent current inhibition hERG F656A, 10 µM): 4.39%
inhibition at 30 µM (hERG F656A [9]; human, HEK cells stably expressing hERG F656A, pH 7.4, Percent current inhibition hERG F656A, 30 µM): 10.9%
inhibition at 300 µM (hERG F656A [9]; human, HEK cells stably expressing hERG F656A, pH 7.4, Percent current inhibition hERG F656A, 300 µM): 37.7%
inhibition at 500 µM (hERG F656A [9]; human, HEK cells stably expressing hERG F656A, pH 7.4, Percent current inhibition hERG F656A, 500 µM): 49.6%
Percent current inhibition hERG Y652A (hERG Y652A [2]; 100 µM): 24.62% ± 2.64
inhibition at 10 µM (hERG Y652A [2]; human, HEK cells stably expressing hERG Y652A, pH 7.4, Percent current inhibition hERG Y652A, 10 µM): 2.4%
inhibition at 30 µM (hERG Y652A [2]; human, HEK cells stably expressing hERG Y652A, pH 7.4, Percent current inhibition hERG Y652A, 30 µM): 10.1%
inhibition at 100 µM (hERG Y652A [2]; human, HEK cells stably expressing hERG Y652A, pH 7.4, Percent current inhibition hERG Y652A, 100 µM): 25%
inhibition at 300 µM (hERG Y652A [2]; human, HEK cells stably expressing hERG Y652A, pH 7.4, Percent current inhibition hERG Y652A, 300 µM): 64%
inhibition at 500 µM (hERG Y652A [2]; human, HEK cells stably expressing hERG Y652A, pH 7.4, Percent current inhibition hERG Y652A, 500 µM): 84.6%
Percent current inhibition hERG WT (hERG WT [4]; 100 µM): 97.36% ± 0.89
inhibition at 10 µM (hERG WT [4]; human, HEK cells stably expressing hERG WT, Percent current inhibition hERG WT, 10 µM): 42.3%
inhibition at 30 µM (hERG WT [4]; human, HEK cells stably expressing hERG WT, Percent current inhibition hERG WT, 30 µM): 77%
inhibition at 100 µM (hERG WT [4]; human, HEK cells stably expressing hERG WT, Percent current inhibition hERG WT, 100 µM): ~90%
inhibition at 300 µM (hERG WT [4]; human, HEK cells stably expressing hERG WT, Percent current inhibition hERG WT, 300 µM): 100%
inhibition at 500 µM (hERG WT [4]; human, HEK cells stably expressing hERG WT, Percent current inhibition hERG WT, 500 µM): 100%

COc1cc(N)c(Cl)cc1C(=O)NC1CCN(CCCOc2ccc(F)cc2)CC1OC (centres unmarked) [Cisapride]
binding affinity to 5HT-4 (agonist) [10]: ~ 14 nM
inhibition at 3 µM (hERG Y652A [5]): 39.1%
inhibition at 5 µM (hERG Y652A [5]): 57.7%
inhibition at 10 µM (hERG Y652A [5]): 91.7%
inhibition at 3 µM (hERG F656A [6]; [13]): 38.7%
inhibition at 5 µM (hERG F656A [6]; [13]): 59.6%
inhibition at 10 µM (hERG F656A [6]; [13]): 75.5%
inhibition at 1 µM (hERG F656A [6]; [14]): ~80%

Cc1cccc(C)c1NC(=O)CC12CCCN1CCC2 [Pilsicainide]
IC50 (hERG; read-out: hERG IC50): < 30 µM and ~20 µM
IC50 (hERG; [11]): 20.4 µM
